Assay results from patent publication US5753695A, “Flavilium compounds and method of using” (Biogal Gyogyszergyar RT, priority 1992, dated 1998).

Columns and labels:
[1] = test system: HIV-1 IIIB; assay: HIV reverse transcriptase activity / HIV replication in infected MT-4 and H9 human lymphocyte cell-lines; assay type: cell-based, HIV-1 strain IIIB
Protocol: The HIV reverse transcriptase inhibiting activity of compounds of formula (I) of the invention was measured by the method of Hoffman, A. D. et al. described in Virology, Vol. 147, pp. 326-335, 1985.
The measurement results are shown for the model compound 5,7,4'-trihydroxy-4,3',5'-trimethyl-flavilium chloride (hereinafter referred to as "BIOGAL 6") and prepared as described in Example 1 below.
The active agents were tested on MT-4 and H9 human lymphocyte cell-lines infected with the strain HIV-1 IIIB. The cells were infected with 20 TCID50 of the HIV-1 virus.
[…] The active agent was first added to the culture 4 hours before the infection, and then 24, and 48 hours after infection. HIV infected, untreated MT-4 and H9 cells were used, as well as uninfected, untreated cells as a control. The AZT-control was zidovudine (ZDU) sold by Burroughs Wellcome Company under the name Retrovir.
Reverse transcriptase inhibiting activity was determined on 500 μl aliquots from supernatant of the culture and their virus concentration was measured. The results are given in cpm/cm^3 indicating ^3 H-TTP.

[2] = test system: WISTAR Charles River/SPF laboratory rat strains; assay: Acute toxicity, WISTAR Charles River/SPF laboratory rats; assay type: in vivo; settings: oral doses even as high as 2,000 μg/kg
Protocol: (§1) Acute toxicity examinations on CFP/SPF laboratory mice strains and WISTAR Charles River/SPF laboratory rat strains, orally and intravenously have shown that BIOGAL-6 is nontoxic at oral doses even as high as […].

[3] = test system: CFP/SPF laboratory mice; assay: Acute toxicity, CFP/SPF laboratory mice; assay type: in vivo; settings: oral doses even as high as 2,000 μg/kg
Protocol: as §1

| SMILES | RT activity ([1]; Table 1, 5 μg/cm^3, 7 day) [cpm/cm^3] | RT activity ([1]; Table 1, 5 μg/cm^3, 10 day) [cpm/cm^3] | RT activity ([1]; Table 1, 5 μg/cm^3, 18 day) [cpm/cm^3] | RT activity ([1]; Table 1, 20 μg/cm^3, 7 day) [cpm/cm^3] | RT activity ([1]; Table 1, 20 μg/cm^3, 10 day) [cpm/cm^3] | RT activity ([1]; Table 1, 20 μg/cm^3, 18 day) [cpm/cm^3] | RT activity ([1]; Table 1, 100 μg/cm^3, 7 day) [cpm/cm^3] | RT activity ([1]; Table 1, 100 μg/cm^3, 10 day) [cpm/cm^3] | RT activity ([1]; Table 1, 100 μg/cm^3, 18 day) [cpm/cm^3] | RT activity ([1]; Table 2, 0.1 μg/cm^3, 7 day) [cpm/cm^3] | RT activity ([1]; Table 2, 0.1 μg/cm^3, 10 day) [cpm/cm^3] | RT activity ([1]; Table 2, 0.1 μg/cm^3, 18 day) [cpm/cm^3] | RT activity ([1]; Table 2, 0.5 μg/cm^3, 7 day) [cpm/cm^3] | RT activity ([1]; Table 2, 0.5 μg/cm^3, 10 day) [cpm/cm^3] | RT activity ([1]; Table 2, 0.5 μg/cm^3, 18 day) [cpm/cm^3] | RT activity ([1]; Table 2, 1.0 μg/cm^3, 7 day) [cpm/cm^3] | RT activity ([1]; Table 2, 1.0 μg/cm^3, 10 day) [cpm/cm^3] | RT activity ([1]; Table 2, 1.0 μg/cm^3, 18 day) [cpm/cm^3] | RT activity ([1]; Table 2, 2.5 μg/cm^3, 7 day) [cpm/cm^3] | RT activity ([1]; Table 2, 2.5 μg/cm^3, 10 day) [cpm/cm^3] | further results |
| --- | --- | --- | --- | --- | --- | --- | --- | --- | --- | --- | --- | --- | --- | --- | --- | --- | --- | --- | --- | --- | --- |
| Cc1cn([C@H]2C[C@H](N=[N+]=[N-])[C@@H](CO)O2)c(=O)[nH]c1=O [AZT, azidothymidine, reference compound] | 2.195 | 2.127 | 38.797 | 2.386 | 2.224 | 1.921 | 2.220 | 2.181 | 1.838 | 7.392 | 125.627 | 62.817 | 6.148 | 75.051 | 84.047 | 3.989 | 15.115 | 75.539 | 3.231 | 9.083 | RT activity ([1]; Table 2, 2.5 μg/cm^3, 18 day): 116.001 cpm/cm^3; RT activity ([1]; Table 2, 5.0 μg/cm^3, 7 day): 1.724 cpm/cm^3; RT activity ([1]; Table 2, 5.0 μg/cm^3, 10 day): 3.571 cpm/cm^3; RT activity ([1]; Table 2, 5.0 μg/cm^3, 18 day): 51.735 cpm/cm^3 |
| Cc1cc(-c2cc(C)c3c(O)cc(O)cc3[o+]2)cc(C)c1O [BIOGAL 6, 5,7,4'-trihydroxy-4,3',5'-trimethyl-flavilium chloride] | 1.795 | 1.228 | 1.198 | 1.748 | 1.626 | 1.300 | 1.666 | 1.300 | 1.359 | 111.035 | 99.813 | 45.535 | 108.846 | 98.150 | 43.804 | 96.638 | 75.917 | 38.595 | 6.231 | 8.938 | acute toxicity [2]: nontoxic; effect on HIV (in words) ([1]; 1.0 μg/cm^3 and below): completely ineffective; effect on HIV replication (in words) ([1]; 5 μg/cm^3): completely blocked the HIV replication; duration of effect compared to AZT (in words), FIG. 1 ([1]; 5 μg/cm^3, FIG. 1): long lasting when compared to AZT; effect on HIV production (in words), FIG. 1 ([1]; 5 μg/cm^3, FIG. 1): completely blocked HIV production; duration of effect on HIV (in words) ([1]; 2.5 and 5 μg/cm^3): long-lasting; RT activity ([1]; Table 2, 2.5 μg/cm^3, 18 day): 6.803 cpm/cm^3; RT activity ([1]; Table 2, 5.0 μg/cm^3, 7 day): 1.478 cpm/cm^3; RT activity ([1]; Table 2, 5.0 μg/cm^3, 10 day): 1.019 cpm/cm^3; RT activity ([1]; Table 2, 5.0 μg/cm^3, 18 day): 1.226 cpm/cm^3; acute toxicity [3]: nontoxic |
